Results on 8 molecules are retold here after ChEMBL document CHEMBL1146503, “Effects of natural flavones and flavonols on the kinase activity of Cdk5” (J Nat Prod, 2004).

The experiment has as its target Cyclin-dependent kinase 5 (Rattus norvegicus, UniProt Q03114). Kind of experiment: Inhibition of rat fetal brain CDK5 assessed as phosphorylated histone H1 levels by immuno-precipitation. It is filed as tissue-based.

A value given as a limit tells only on which side of the number the result lay.

Cyclin-dependent kinase 5, sequence (Q03114 whole entry): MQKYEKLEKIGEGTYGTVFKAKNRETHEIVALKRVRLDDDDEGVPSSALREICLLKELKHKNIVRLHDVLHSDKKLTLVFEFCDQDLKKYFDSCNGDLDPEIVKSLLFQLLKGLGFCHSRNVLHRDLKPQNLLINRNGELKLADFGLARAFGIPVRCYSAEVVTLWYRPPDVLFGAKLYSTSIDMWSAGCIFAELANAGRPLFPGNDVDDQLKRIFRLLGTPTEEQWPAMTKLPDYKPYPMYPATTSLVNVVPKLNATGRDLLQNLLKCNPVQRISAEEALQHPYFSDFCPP

Turning to `O=c1c(O)c(-c2ccc(O)cc2)oc2cc(O)cc(O)c12` [KAEMPFEROL], the 50% effective concentration (EC50) worked out at 66.1 µM.

Turning to `COc1c(O)cc2oc(-c3ccc(O)c(O)c3)cc(=O)c2c1O` [EUPAFOLIN], the concentration for a half-maximal effect (EC50) was determined as 40 µM.

As to `O=c1c(O)c(-c2cc(O)c(O)c(O)c2)oc2cc(O)cc(O)c12` [MYRICETIN], the EC50 is 71.1 µM. Regarding `O=c1cc(-c2ccc(O)c(O)c2)oc2cc(O)cc(O)c12` [LUTEOLIN], the EC50 is > 250 µM. As to `COc1cc2oc(-c3ccccc3)cc(=O)c2c(OC)c1O`, the EC50 is > 250 µM. `COc1cc(-c2oc3c(OC)c(OC)c(OC)c(O)c3c(=O)c2OC)ccc1O`: the 50% effective concentration (EC50) is > 25 µM. Regarding `COc1c(O)cc2oc(-c3ccc(O)cc3)cc(=O)c2c1O` [HISPIDULIN], the 50% effective concentration (EC50) is 19.1 µM. On to `O=c1cc(-c2ccc(O)cc2)oc2cc(O)cc(O)c12` [APIGENIN], for which the EC50 was > 250 µM.
